Results: patent US20180098969A1, “HODGKIN LYMPHOMA THERAPY” (Purdue Pharmaceutical Products L.P., priority 2016, published 2018)

Columns and labels:
[1] = tested on: relapsed-refractory Hodgkin lymphoma; settings: in vivo; cited from earlier work
[2] = tested on: non-resistant L1236 Hodgkin lymphoma cell lines; experiment: Viable cell count and IC50, non-resistant lines; assay type: cell-based, human; settings: FIG. 6B
Procedure: (b) The bendamustine-resistant Hodgkin lymphoma cell line L1236-R100, non-resistant L1236 Hodgkin lymphoma cell line cultured in DMSO L1236/DMSO and L1236 was cultured in the presence of EDO-S101 dissolved in DMSO at concentrations of 0.78 μM, 1.56 μM, 3.12 μM, 6.25 μM and 12.5 μM. Control cells were cultured in the same final concentration of DMSO. The number of viable cells was assessed at 24, 48 and 72 hours through a Countess™ automated cell counter (Invitrogen), each experiment being repeated three times and the results given being the mean of the three results ±SD.

Structure (SMILES): Cn1c(CCCC(=O)O)nc2cc(N(CCCl)CCCl)ccc21 [bendamustine]
- relapsed/refractory Hodgkin lymphoma patients resistant [1]: about 40%
- IC50 [2]: high IC50 values
